The values that follow come from patent US9045468B2, “2,5-methano- and 2,5-ethano-tetrahydrobenzazepine derivatives and use thereof to block reuptake of norepinephrine, dopamine, and serotonin” (Albany Molecular Research, Inc., priority 2010, dated 2015).

The target of one experiment is hSERT (Homo sapiens (Human), UniProt P31645). The experiment in a line: SERT radioligand binding assay ([125I]RTI-55, HEK-293 membranes). The protocol: (§1) The medium was removed from the flasks and the cells rinsed with HBSS without Ca and without Mg. The cells were then incubated for 5-10 minutes in 10 mM Tris-Cl, pH 7.5, 5 mM EDTA before the cells were lifted with a combination of pipetting and scraping, as needed. The cell suspension was collected into centrifuge bottles and homogenized for 30 seconds with a Polytron homogenizer. The suspension was centrifuged for 30 minutes at 32,000×g, 4° C. The supernatant was decanted and the pellet resuspended and homogenized in 50 mM Tris-Cl, pH 7.5, 1 mM EDTA for 10 seconds. The suspension was then centrifuged again for 30 minutes at 32,000×g, 4° C. The supernatant was decanted and the pellet resuspended in 50 mM Tris-Cl, pH 7.5, 1 mM EDTA and briefly homogenized. A Bradford assay (Bio-rad) was performed and the membrane preparation diluted to 2 mg/ml with 50 mM Tris-Cl, pH 7.5, 1 mM EDTA. Aliquots were prepared, and then frozen and stored at −80° C.
Compounds were dissolved in 100% DMSO at a concentration 100 times the desired highest assay concentration, serially diluted 1:3 in 100% DMSO, and 0.4 μl/well of each solution was dispensed to a Nunc polypropylene, round bottom, 384-well plate. […] The contents of the assay plate were then transferred to a Millipore MultiscreenHTS GF/B filter plate which was pretreated with 0.5% PEI for at least one hour. The plate was vacuum filtered and washed with 7 washes of […] 50 mM Tris-Cl, pH 7.5, 120 mM NaCl, 5 mM KCl chilled to 4° C. The filtration and washing were completed in less than 90 seconds. The plates were air-dried overnight, 12 μl/well of MicroScint scintillation fluid added, and the plates counted in a Trilux.
(§2) Each plate was run in triplicate, and the concentration response curve thus generated was fit using the four-parameter dose response equation, Y=Bottom+(Top-Bottom)/(1+10^((Log IC50−X)*HillSlope)) in order to determine the IC50 value for each compound. The radioligand concentration chosen for each assay corresponds to the Kd concentration determined through saturation binding analysis for each assay.

In a further experiment the target is hDAT (Homo sapiens (Human), UniProt Q01959). In words: DAT radioligand binding assay ([125I]RTI-55, HEK-293 membranes). As to the method:
as §1, with “Recombinant HEK-293 cells expressing either the hSERT, hDAT, or hNET proteins were harvested from T-175 flasks as follows. The medium” for “The medium”
Compounds were dissolved in 100% DMSO at a concentration 100 times the desired highest assay concentration, serially diluted 1:3 in 100% DMSO, and 0.4 μl/well of each solution was dispensed to a Nunc polypropylene, round bottom, 384-well plate. […] 20 ul/well of a 2× membrane preparation (12.5 μg/ml in 30 mM sodium phosphate buffer, pH 7.9 at 4° C.) and 20 μl/well of a 2× radioligand solution (250 pM [^125I]RTI-55 in 30 mM sodium phosphate buffer, pH 7.9 at 4° C.) were added to the well and the reaction incubated for 1 hour at room temperature. The contents of the assay plate were then transferred to a Millipore MultiscreenHTS GF/B filter plate which was pretreated with 0.5% PEI for at least one hour. The plate was vacuum-filtered and washed with 7 washes of 100 μl/well 50 mM Tris-Cl, pH 7.5, 120 mM NaCl, 5 mM KCl chilled to 4° C. The filtration and washing were completed in less than 90 seconds. The plates were air-dried overnight, 12 μl/well of MicroScint scintillation fluid added, and the plates counted in a Trilux.
as §2

The target of another experiment is hNET (Homo sapiens (Human), UniProt P23975). The experiment in a line: NET radioligand binding assay ([3H]nisoxetine, HEK-293 membranes). To be noted: recombinant HEK-293 membranes, [3H]nisoxetine; read-out: Binding Affinity (IC50, nM) NET. The protocol: as §1
Compounds were dissolved in 100% DMSO at a concentration 100 times the desired highest assay concentration, serially diluted 1:3 in 100% DMSO, and 1.0 μl/well of each solution was dispensed to a Nunc polypropylene, round bottom, 384-well plate. […] 50 μl/well of a 2× membrane preparation (0.4 mg/ml in 50 mM Tris-Cl, pH 7.5, 120 mM NaCl, 5 mM KCl) and 50 μl/well of a 2× radioligand solution (4 nM [^3H]nisoxetine in 50 mM Tris-Cl, pH 7.5, 120 mM NaCl, 5 mM KCl) were added to the well and the reaction incubated for 1 hour at room temperature. The contents of the assay plate were then transferred to a Millipore MultiscreenHTS GF/B filter plate which was pretreated with 0.5% PEI for at least one hour. The plate was vacuum filtered and washed with 7 washes of 100 μl/well 50 mM Tris-Cl, pH 7.5, 120 mM NaCl, 5 mM KCl chilled to 4° C. The filtration and washing were completed in less than 90 seconds. The plates were air-dried overnight, 12 μl/well of MicroScint scintillation fluid added, and the plates counted in a Trilux.
as §2

Where [1] appears, read: recombinant HEK-293 membranes, [125I]RTI-55, read-out: Binding Affinity (IC50, nM) SERT.
[2] abbreviates: recombinant HEK-293 membranes, [125I]RTI-55, read-out: Binding Affinity (IC50, nM) DAT.

Where two headings read alike, the source gives them in different places.

Chain of hDAT (Q01959 whole entry): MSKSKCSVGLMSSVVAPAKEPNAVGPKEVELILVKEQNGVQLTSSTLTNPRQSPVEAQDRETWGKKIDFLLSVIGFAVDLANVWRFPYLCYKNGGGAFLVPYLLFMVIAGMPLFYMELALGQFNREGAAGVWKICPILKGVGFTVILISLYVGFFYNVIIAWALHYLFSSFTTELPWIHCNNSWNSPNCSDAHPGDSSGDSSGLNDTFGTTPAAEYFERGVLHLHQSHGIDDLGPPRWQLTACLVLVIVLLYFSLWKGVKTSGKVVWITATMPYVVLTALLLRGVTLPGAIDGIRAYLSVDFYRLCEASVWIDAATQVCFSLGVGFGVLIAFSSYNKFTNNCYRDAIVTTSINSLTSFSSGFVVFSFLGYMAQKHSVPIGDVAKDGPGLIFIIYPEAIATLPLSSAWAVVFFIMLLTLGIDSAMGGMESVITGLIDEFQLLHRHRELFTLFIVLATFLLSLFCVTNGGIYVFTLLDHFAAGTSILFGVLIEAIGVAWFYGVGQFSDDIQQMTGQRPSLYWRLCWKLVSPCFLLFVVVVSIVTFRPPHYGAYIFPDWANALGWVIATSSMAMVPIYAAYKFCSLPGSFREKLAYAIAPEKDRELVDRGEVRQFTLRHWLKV
Chain of hNET (P23975 whole entry): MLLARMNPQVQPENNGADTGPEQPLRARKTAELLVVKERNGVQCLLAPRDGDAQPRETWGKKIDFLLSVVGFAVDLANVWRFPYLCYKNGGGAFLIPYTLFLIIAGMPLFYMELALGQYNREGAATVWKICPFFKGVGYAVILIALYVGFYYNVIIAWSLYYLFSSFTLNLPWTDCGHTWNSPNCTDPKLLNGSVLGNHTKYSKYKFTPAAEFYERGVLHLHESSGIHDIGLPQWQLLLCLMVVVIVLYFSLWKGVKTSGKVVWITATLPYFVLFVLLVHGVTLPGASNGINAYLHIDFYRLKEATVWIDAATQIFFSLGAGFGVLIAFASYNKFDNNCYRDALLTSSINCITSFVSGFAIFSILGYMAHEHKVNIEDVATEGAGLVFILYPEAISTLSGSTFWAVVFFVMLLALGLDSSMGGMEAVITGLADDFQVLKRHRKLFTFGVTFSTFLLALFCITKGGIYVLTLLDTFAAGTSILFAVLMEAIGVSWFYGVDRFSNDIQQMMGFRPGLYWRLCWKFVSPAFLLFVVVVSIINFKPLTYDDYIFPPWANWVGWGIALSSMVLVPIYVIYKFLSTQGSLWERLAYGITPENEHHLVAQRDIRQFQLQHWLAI
Chain of hSERT (P31645 whole entry): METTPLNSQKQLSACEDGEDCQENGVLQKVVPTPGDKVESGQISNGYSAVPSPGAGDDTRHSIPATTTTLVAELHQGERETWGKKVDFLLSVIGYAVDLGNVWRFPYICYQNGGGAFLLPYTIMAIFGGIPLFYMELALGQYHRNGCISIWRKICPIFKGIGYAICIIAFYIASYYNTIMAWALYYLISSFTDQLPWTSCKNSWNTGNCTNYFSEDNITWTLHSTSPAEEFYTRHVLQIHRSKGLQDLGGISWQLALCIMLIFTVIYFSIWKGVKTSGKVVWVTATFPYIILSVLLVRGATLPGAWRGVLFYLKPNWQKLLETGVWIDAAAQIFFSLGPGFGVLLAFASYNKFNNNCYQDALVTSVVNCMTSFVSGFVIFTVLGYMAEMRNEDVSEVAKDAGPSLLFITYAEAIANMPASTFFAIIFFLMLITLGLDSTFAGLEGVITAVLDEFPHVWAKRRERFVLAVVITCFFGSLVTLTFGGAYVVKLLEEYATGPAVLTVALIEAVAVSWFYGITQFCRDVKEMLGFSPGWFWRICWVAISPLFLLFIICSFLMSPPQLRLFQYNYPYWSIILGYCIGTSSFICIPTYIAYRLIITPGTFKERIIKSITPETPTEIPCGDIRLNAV

As for `Cc1nnc(-c2ccc3c(c2)CN2CCC3(c3ccc(Cl)cc3)CC2)s1` [Example 25, 2-(5-(4-chlorophenyl)-2,5-ethano-2,3,4,5-tetrahydro-1H-benzo[c]azepin-8-yl)-5-methyl-1,3,4-thiadiazole], the values for the IC50 on hSERT (setting [1]), on hDAT (setting [2]) and at hNET were 6.4 nM, 169 nM and 392 nM, respectively.
On to `FC(F)(F)c1ccc(Oc2ccc3c(c2)CN2CCC3(c3cccc(Cl)c3)CC2)nn1` [Example 49, 5-(3-chlorophenyl)-2,5-ethano-8-(6-(trifluoromethyl)pyridazin-3-yloxy)-2,3,4,5-tetrahydro-1H-benzo[c]azepine], for which the IC50 at hSERT (setting [1]) came to 24.2 nM; at hDAT (setting [2]) it was 55.9 nM; at hNET, 451 nM.
Taken in the same sequence, the figures for `Clc1ccc(C23CCN(CC2)Cc2cc(-c4cncnc4)ccc23)cc1` [Example 16, 5-(4-chlorophenyl)-2,5-ethano-8-(pyrimidin-5-yl)-2,3,4,5-tetrahydro-1H-benzo[c]azepine] were 7.3 nM, 156 nM and 2930 nM.
Taken in the same sequence, the figures for `O=c1[nH]c2ccc(-c3ccc4c(c3)CN3CCC4(c4ccc(Cl)c(Cl)c4)C3)cc2o1` (single isomer, unassigned) [11(+), 8-(2-oxo-2,3-dihydrobenzo[d]oxazol-6-yl)-5-(3,4-dichlorophenyl)-2,5-methano-2,3,4,5-tetrahydro-1H-benzo[c]azepine] were 3.5 nM, 50 nM and 369 nM.
On the same counts, the results for `Clc1ccc(C23CCN(CC2)Cc2cc(Oc4cnccn4)ccc23)cc1` [Example 33, 5-(4-chlorophenyl)-2,5-ethano-8-(pyrazin-2-yloxy)-2,3,4,5-tetrahydro-1H-benzo[c]azepine] are 6.1 nM, 116 nM and 910 nM.
Take `O=c1n(-c2ccc3c(c2)CN2CCC3(c3ccc(Cl)cc3)CC2)nc2ccccn12` [Example 23, 2-(5-(4-chlorophenyl)-2,5-ethano-2,3,4,5-tetrahydro-1H-benzo[c]azepin-8-yl)-[1,2,4]triazolo[4,3-a]pyridin-3(2H)-one]: the IC50 on hSERT (setting [1]) came out at 1.5 nM; on hDAT (setting [2]), 37.5 nM; at hNET it was 176 nM.
Take `FC(F)(F)c1ccc(-c2ccc3c(c2)CN2CCC3(c3ccc(Cl)cc3)C2)nn1` (racemic) [Example 5, rac-5-(4-chlorophenyl)-2,5-methano-8-(6-(trifluoromethyl)pyridazin-3-yl)-2,3,4,5-tetrahydro-1H-benzo[c]azepine]: the results for the IC50 at hSERT (setting [1]), at hDAT (setting [2]) and at hNET were 10.1 nM, 74.2 nM and 274 nM, respectively.
Take `Cc1cc2ncnn2cc1-c1ccc2c(c1)CN1CCC2(c2ccc(Cl)c(Cl)c2)CC1` [Example 43, 5-(3,4-dichlorophenyl)-2,5-ethano-8-(7-methyl-[1,2,4]triazolo[1,5-a]pyridin-6-yl)-2,3,4,5-tetrahydro-1H-benzo[c]azepine]: the IC50 amounted to 18.9 nM on hSERT (setting [1]), 43.8 nM on hDAT (setting [2]) and 373 nM at hNET.
`CCS(=O)(=O)N1CCN(c2ccc(C34CCN(CC3)Cc3cc(N5CCN(S(=O)(=O)CC)CC5)ccc34)cc2)CC1` [Example 31, 8-(4-(ethylsulfonyl)piperazin-1-yl)-5-(4-(4-(ethylsulfonyl)piperazin-1-yl)phenyl)-2,5-ethano-2,3,4,5-tetrahydro-1H-benzo[c]azepine]: the IC50 at hSERT (setting [1]) amounted to 2320 nM; at hDAT (setting [2]), 4020 nM; on hNET it was 8300 nM.
Turning to `FC(F)(F)c1ccc(-c2ccc3c(c2)CN2CCC3(c3ccc(Cl)cc3)CC2)nn1` [Example 15, 5-(4-chlorophenyl)-2,5-ethano-8-(6-(trifluoromethyl)pyridazin-3-yl)-2,3,4,5-tetrahydro-1H-benzo[c]azepine], the IC50 on hSERT is 2.6 nM; on hDAT it was 121 nM; at hNET, 384 nM.
For the compound `FC(F)(F)c1ccc(C23CCN(CC2)Cc2cc(Oc4ccc(C(F)(F)F)nn4)ccc23)cc1` [Example 50, 2,5-ethano-5-(4-(trifluoromethyl)phenyl)-8-(6-(trifluoromethyl)pyridazin-3-yloxy)-2,3,4,5-tetrahydro-1H-benzo[c]azepine], the IC50 at hSERT (setting [1]) was determined as 10.9 nM; on hDAT (setting [2]), 614 nM; at hNET, 1050 nM.
With `Fc1ccc(C23CCN(Cc4cc(-c5ccc(C(F)(F)F)nn5)ccc42)C3)cc1Cl` (single isomer, unassigned) [56(+), 5-(3-chloro-4-fluorophenyl)-2,5-methano-8-(6-(trifluoromethyl)pyridazin-3-yl)-2,3,4,5-tetrahydro-1H-benzo[c]azepine], the IC50 at hSERT (setting [1]) was determined as 2.4 nM; on hDAT (setting [2]) it was 11.4 nM; on hNET, 78.6 nM.
With `COc1ccc2c(c1)CN1CCC2(c2ccc(Cl)cc2)CC1` [Example 12, 5-(4-chlorophenyl)-8-methoxy-2,5-ethano-2,3,4,5-tetrahydro-1H-2-benzo[c]azepine], the half-inhibitory concentration (IC50) on hSERT (setting [1]) stood at 7.8 nM; at hDAT (setting [2]), 52 nM; on hNET, 881 nM.
As to `N#Cc1ccc(-c2ccc3c(c2)CN2CCC3(c3ccc(Cl)cc3)C2)cc1` (racemic) [Example 8, rac-4-(5-(4-chlorophenyl)-2,5-methano-2,3,4,5-tetrahydro-1H-benzo[c]azepin-8-yl)benzonitrile], the IC50 is 16.6 nM at hSERT (setting [1]), 450 nM at hDAT (setting [2]) and 1210 nM at hNET.
With `Oc1ccc(-c2ccc3c(c2)CN2CCC3(c3ccc(Cl)c(Cl)c3)CC2)nn1` [Example 41, 6-(5-(3,4-dichlorophenyl)-2,5-ethano-2,3,4,5-tetrahydro-1H-benzo[c]azepin-8-yl)pyridazin-3-ol], the results for the IC50 on hSERT (setting [1]), at hDAT (setting [2]) and on hNET were 5 nM, 5.1 nM and 79.2 nM, respectively.
Take `Oc1ccc2c(c1)CN1CCC2(c2ccc(Cl)cc2)CC1` [Example 13, 5-(4-chlorophenyl)-2,5-ethano-2,3,4,5-tetrahydro-1H-2-benzo[c]azepin-8-ol]: the half-maximal inhibitory concentration (IC50) on hSERT (setting [1]) worked out at 16.3 nM; at hDAT (setting [2]), 21.1 nM; at hNET, 691 nM.

By IC50 is commonly meant the midpoint of a concentration-inhibition curve.
